Source: US9107830B2, “Inhibitors of crystallization in a solid dispersion” (ABBVIE, INC., priority 1999, dated 2015)
Entries after “also recorded” stand apart in the source; their conditions may differ.

Legend:
[1] = DSC crystallization kinetics, isothermal hold at 85° C.; type: physicochemical; details: PVP in matrix versus PEG
Protocol: DSC measurements were made using a Mettler DSC 30 unit. Samples (4-7 mg) were sealed in standard 40 μl aluminum crucibles with a single hole punched in the lids. An empty crucible of the same type was used as a reference.
A similar plot is shown in FIG. 2 with PVP incorporated into the matrix. […] A similar plot is seen in FIG. 4 for the PEG:PVP dispersion. The endotherm associated with drug melting can clearly be discerned from the other components. Thus, it is possible to follow the kinetics of ABT-538 crystallization via DSC measurements. Crystallization kinetics were determined by heating the samples to 85° C., holding them isothermally for predetermined times followed by heating through the melting transition temperature of ABT-538. The heats of fusion were determined and ratioed against the heat of fusion of the drug melting in the physical mixture, giving the fraction crystallized.

[2] = Isothermal calorimetry (TAM) of recrystallization at 40° C.; type: physicochemical
Protocol: The recrystallization reactions of 30% ABT-538 in PEG or PEG:PVP (95:5) solid dispersions were monitored via isothermal calorimetry (Thermometric 2277 Calorimeter) at 40° C. Since crystallization is an exothermic process, a positive power output indicates crystallization. The magnitude of the power output at any time is proportional to the rate of crystallization. XPD was used to confirm crystallization.
The crystallization rate was also followed via the heat associated with crystallization of ABT-538 using a isothermal calorimetry. The shapes and magnitudes of the crystallization peaks in FIG. 6 indicate that ABT-538 crystallizes more readily in the PEG matrix as compared to the PEG:PVP matrix. This stabilizing effect of PVP is also reflected in the times required for complete crystallization (time to reach baseline) which were <10 hours for PEG and >30 hours for PEG:PVP (95:5).

[3] = XPD monitoring for crystalline drug in samples held at 50° C.; type: physicochemical
Protocol: An X-ray powder diffraction (XPD) pattern was obtained with a Scintag® XDS 2000 θ/θ diffraction system equipped with a 2 kW normal focus X-ray tube and a liquid nitrogen cooled germanium solid state detector. An additional study was performed with a dispersion containing 15% PVP. The samples were held at 50° C. (above the Tg of ABT-538) and X-ray diffraction patterns were measured over time to monitor for the appearance of crystalline ABT-538.

[4] = X-ray powder diffraction of freshly prepared solid dispersions (physical form of drug in matrix); type: physicochemical
Protocol: (§1) An X-ray powder diffraction (XPD) pattern was obtained with a Scintag® XDS 2000 θ/θ diffraction system equipped with a 2 kW normal focus X-ray tube and a liquid nitrogen cooled germanium solid state detector.
The samples were prepared by dissolving ABT-538 in a small volume of 200 proof ethanol in a 250 ml round bottom flask. The flask was vortexed and then placed in a water bath maintained at 75° C. The PEG 8000 was added to the hot alcohol solution with continual swirling until the PEG melted. The flask was then attached to a rotary evaporator, immersed in the water bath (75° C.) under vacuum for 15 minutes to remove the ethanol. After the majority of ethanol had evaporated, the flask was immersed in an ice bath for 15 minutes. The contents of the flask were then vacuum dried at room temperature overnight to remove residual alcohol. The dispersion was removed from the flask, gently ground, and sized to 40-100 mesh size. The drug loads used for these dispersions were 10, 20 and 30% w/w.
The solid dispersion of 30% ABT-538 in 95:5 PEG8000:PVP was prepared by dissolving the ABT-538 and PVP 17 PF in a small volume of 200 proof ethanol in a 250 ml round bottom flask. The remainder of the process was as described above. A 30% ABT-538 dispersion in 85:15 PEG8000:PVP was also prepared similarly as were dispersions of 10 or 20% PVP 17 PF in PEG 8000 without drug.
(§2) Both fenofibrate and PEG 8000 were sized to 40-100 mesh prior to mixing with a spatula on weighing paper. The mixture was then added to a 25 ml beaker and heated to 85° C. in a water bath until the all the material had melted. The molten solution was then poured onto a chilled X-ray sample holder to rapidly solidify the solution. The solid sample was immediately used to monitor the crystallization rate via X-ray powder diffraction.
Fenofibrate (40-100 mesh) was added to the 90:10 PEG 8000:PVP control dispersion (see above) which was also sized to 40-100 mesh and mixed with spatula on a piece of weighing paper. The mixture was then processed as described above for the 15% fenofibrate dispersion in PEG 8000.
Both griseofulvin and PEG 8000 were sized to 40-100 mesh prior to mixing on a weighing paper with a spatula. The sample was then added to an 4 ml stainless steel vessel which was sealed under a N2 atmosphere. The vessel was then immersed into an oil bath maintained at 180° C. […]
A similar plot is shown in FIG. 2 with PVP incorporated into the matrix. […] Crystallization kinetics were determined by heating the samples to 85° C., holding them isothermally for predetermined times followed by heating through the melting transition temperature of ABT-538. The heats of fusion were determined and ratioed against the heat of fusion of the drug melting in the physical mixture, giving the fraction crystallized. […]

[5] = Aungst et al., Int. J. Pharm. 156, 79 (1997); cited from earlier work
[6] = XPD rate of crystallization upon storage at 25° C.; type: physicochemical
Protocol: as §1, §2
The figure illustrates that the fenofibrate is X-ray-amorphous within the matrix. Again, the fenofibrate is amorphous. Upon storage at 25° C., the fenofibrate begins to crystallize in the PEG 8000 matrix within 1 hour (FIG. 10). Additional crystallization follows up to 12 hours, when the experiment was terminated.
Similar XPD patterns for the griseofulvin dispersion in PEG 8000 and 80:20 PEG 8000:PVP matrices are shown in FIGS. 12 and 13, respectively. In both instances, amorphous griseofulvin is isolated within the respective matrices. […] However, in the presence of PVP (FIG. 15), crystallization is not observed even after 15 hours under the same conditions.

[7] = PEG 8000:PVP matrix, 30% ABT-538, 15% fenofibrate (90:10) or 15% griseofulvin (80:20)
[8] = PEG 8000 matrix, 30% ABT-538, 15% fenofibrate or 15% griseofulvin

SMILES | effect of PVP within the matrix on crystallization rate (percent crystallized from heat of fusion) [1] | effect of PVP within the matrix on crystallization rate (percent crystallized from heat of fusion) ([1]; listed as ritonavir) | time required for complete crystallization (time to reach baseline) ([2]; 30% ABT-538 in PEG solid dispersion) [h] | time required for complete crystallization (time to reach baseline) ([2]; 30% ABT-538 in PEG:PVP (95:5) solid dispersion) [h] | time at which crystalline drug is detected (XPD) ([3]; PEG8000 alone, detected at this time and before) [h] | time held without crystalline ABT-538 present (XPD) ([3]; dispersion containing 15% PVP) [h] | physical form of drug in the solid dispersion by XPD [4, 7] | physical form of drug in the solid dispersion by XPD [4, 8] | effect of PEG solid dispersion formulation on bioavailability [5] | time at which drug begins to crystallize (XPD) ([6]; 15% drug in PEG 8000 matrix, storage at 25° C.) | time without crystallization observed (XPD) ([6]; 15% griseofulvin in 80:20 PEG 8000:PVP, 25° C.) [h]
CC(C)c1nc(CN(C)C(=O)NC(C(=O)NC(Cc2ccccc2)CC(O)C(Cc2ccccc2)NC(=O)OCc2cncs2)C(C)C)cs1 [ABT-538, (2S,3S,5S)-5-(N—(N—((N-methyl-N-((2-isopropyl-4-thiazolyl)-methyl)amino)carbonyl)-L-valinyl)amino-2-(N-((5-thiazolyl)methoxy-carbonyl)-amino)-1,6-diphenyl-3-hydroxyhexane] | suppresses the crystallization rate | slower | < 10 | > 30 | ≤ 233 | > 272 | Amorphous; also recorded: not crystalline | Amorphous; also recorded: not crystalline | – | – | –
O=C1N(Cc2ccc(CO)cc2)[C@H](Cc2ccccc2)[C@H](O)[C@@H](O)[C@@H](Cc2ccccc2)N1Cc1ccc(CO)cc1 [DMP 323] | – | – | – | – | – | – | – | – | unable to improve the bioavailability | – | –
COC1=CC(=O)C[C@@H](C)[C@]12Oc1c(Cl)c(OC)cc(OC)c1C2=O [griseofulvin] | – | – | – | – | – | – | amorphous | amorphous | – | one | > 15
